Drawing on a melting point compilation (Tetko et al.; mined from patent text by program, amines drawn as free bases though some values may be those of a salt), this text covers melting point for 89 molecules.

`CC(=O)Nc1cc(Br)c(O)c(Br)c1`: the melting point lay within 155 to 156 °C.
Next, `CC(=O)Nc1ccc(F)c(F)c1`: 127 to 128 °C.
Next, `CN(C)C=C(C#N)C=O`: 140 to 141 °C; `O=C(Nc1cc(-c2ccnc3c(C(=O)c4cccs4)cnn23)ccc1F)c1ccccc1F`: 214 to 216 °C.
Under `CCCc1c(OCCCOc2ccc3c(c2CCC)OC(CCC(=O)O)CC3=O)ccc(C(C)=O)c1O` (centres undefined) stands 149 to 150 °C.
As to `Cc1cccc(NC(=O)NCC(=O)N(c2ccccc2)C(C(=O)OC(C)(C)C)c2ccccc2Cl)c1` (racemic), the melting point stood at 181 °C.
Under `O=C1NC(=O)[C@@]2(C[C@@H](C(=O)NCCN3CCN(CC=Cc4ccccc4)CC3)Oc3ccc(F)cc32)N1` stands 133 to 135 °C; under `O=S(=O)(Nc1ccccc1O)c1ccc2ccccc2c1`, 136 °C; under `CCOc1cccc(CNC(=O)c2nc3scc(COCc4ccc(C(=O)O)cc4)c3c(=O)[nH]2)c1`, 240 °C.
Next, `CC(C)(C)OC(=O)Nc1ccc(-c2cccnc2)cc1[N+](=O)[O-]`: 107 to 109 °C; `CCSc1cc(C)nc(SCC)c1NC(=O)CCCSc1nc2c(C)c(Cl)cc(C(C)C)c2o1`: 122 to 123 °C.
With `COC(=O)c1cccc(Nc2nccc(-c3cn[nH]c3-c3ccc(F)cc3)n2)c1`, the melting point is above 265 °C.
Under `Cc1nnc(N(Cc2ccccc2)C(=O)Cc2ccccc2)s1` stands 128 °C.
With `N#CCS(=O)(=O)c1ccc([N+](=O)[O-])cc1`, the melting point was in the range of 166 to 168 °C.
Take `CCOC(=O)/C=C(C)/C=C/C1=C(c2ccc3c(c2)C(C)(C)CCC3(C)C)CCC1`: the melting point is 83 to 86 °C.
For the molecule `CCCCn1sc2nc3ccccc3n2c1=O`, the melting point lay within 153 to 154 °C.
`O=C(C=Cc1ccccn1)Nc1nnn[nH]1` came in with a melting point of 275 to 276 °C.
Under `CNC1=NS(=O)N=C1NCCSCc1ccc(CN(C)C)o1` (centres undefined) stands 86 to 92 °C; under `CC(C)N1CCC(CNc2ccccc2C(=O)Nc2ccc(Cl)cn2)CC1`, 277 to 280 °C; under `CCOCc1nc2cnc3cc(OCCNC(=O)OC(C)(C)C)ccc3c2n1CC1COC(C)(C)O1` (centres undefined), 152 to 153 °C.
Next, `CN(C(=O)c1ccc2c(c1)nc(NC(=O)c1cccs1)n2CCCC(=O)O)C1CCCCC1`: 256 to 258 °C; `CCc1nc2c(N)nc3cc(CCC(=O)N4CCSC4)ccc3c2n1CC(C)(C)O`: 210 to 212 °C; `O=C1c2ccccc2C(=O)N1CCCOc1cccc([N+](=O)[O-])c1`: 149 to 152 °C.
Next, `CC1CCc2ccc(OCC(O)CCl)cc2O1` (centres undefined): 70 to 72 °C; `CN1CCN(c2ccccc2CO)[C@@H]2c3ccccc3C[C@H]21` (relative stereo): 166 to 167 °C; `O=S1CCN(c2nc(Cl)nc3c(Cl)ncnc23)CC1`: 195 to 198 °C.
As for `COC(=O)C1=C(C(OC)OC)NC(C)=C(P2(=O)OCCCO2)C1c1ccccc1[N+](=O)[O-]` (centres undefined), the melting point fell in the range of 174 to 176 °C.
With `C[C@@H](CO)n1cc(C(=O)O)c(=O)c2cc(F)c(N3CCN(C)CC3)c(F)c21`, the melting point lay in the range of 250 to 255 °C.
Take `O=C1N(Cc2ccc(Cl)s2)c2ccccc2C12COc1ccc(OCc3ccccc3)cc12` (centres undefined): the melting point is 132 to 135 °C.
Next, `CC(=O)n1nc(CBr)c(Oc2cc(Cl)cc(C#N)c2)c1C`: 122 to 123 °C; `COCC(=O)Nc1ccc(C2=NNC(=O)CC2C)cc1` (centres undefined): 212 °C.
Next, `O=[N+]([O-])c1ccc(-c2cnc3nc(S(=O)(=O)Cl)nn3c2)cc1`: 159 to 167 °C.
Under `C=CCN(CC(N)=O)S(=O)(=O)Cc1cccc(C(F)(F)F)c1` stands 91 to 92 °C.
For the molecule `N#CC1CN1C(=O)NC(=O)C(Cl)Cl` (centres undefined), the melting point lay in the range of 164 to 166 °C.
`Cc1ccc(C(Cl)=CC(=O)NC(Cc2ccccc2)C(=O)O)cc1` (centres undefined) returned a melting point of 168 to 170 °C.
Next, `COC(=O)c1sc(-c2ccccc2)c(O)c1O`: 143 to 144 °C; `S=C(Cc1ccccc1)N1CCOCC1`: 115 to 116 °C.
The molecule `CC(C)C(C)C=CC(C)C1CCC2C3=CC=C4CC(O)C=CC4(C)C3CCC21C` (centres undefined) registered a melting point of 156 to 157 °C.
The molecule `O=Cc1c[nH]cc1-c1cccc(Cl)c1Cl` came in with a melting point of 152 to 154 °C.
Under `Nn1c(C(F)(F)F)cc(=O)n(-c2cc(Oc3ncccc3[N+](=O)[O-])c(Cl)cc2F)c1=O` stands 90 to 96 °C; under `CSC1=NC(=O)C(=Cc2cc(C(C)(C)C)c(O)c(C(C)(C)C)c2)N1C`, 177 to 179 °C; under `C=C(C(=O)O)c1ccc(OC)c(OC)c1`, 128 °C.
Under `CCOc1cccc(-c2ccc(C3=CCN(S(=O)(=O)CC(=O)OC)CC3)cc2C)c1` stands 79 to 81 °C; under `Nc1ccc(S(=O)(=O)NC(=S)NC23CC4CC(CC(C4)C2)C3)cc1`, 176 to 179 °C; under `O=C(NCCCCCC(=O)C(F)(F)F)OCC1c2ccccc2-c2ccccc21`, 83 to 88 °C.
For `O=C(c1c(C2CC2)nn2ccccc12)C1CC1`, the melting point was in the range of 102 to 104 °C.
Under `COc1cccc(-c2cccc3c2S(=O)(=O)NC(C2CCCCC2)N3)c1` (centres undefined) stands 108 to 115 °C; under `Nc1cccc(C2=NCCO2)c1`, 126 to 128 °C; under `COc1cc(OC)c(-c2csc(N)n2)cc1Cl`, 162 °C.
`C1CNCCNCCOCCNCCN1` gave a melting point of 80 to 81 °C.
Next, `CSc1nc2cc(Cl)c(Cl)cc2n1C`: 110 °C; `CCOC(=O)C1=C(C)NC(N=CCN(C)C)=C(C(=O)OCC)C1c1ccccc1` (centres undefined): 126 °C.
Regarding `COc1ccc(CF)c(CN(C(C)=O)c2cc(F)ccc2Oc2ccccc2)c1`, the melting point was 71 to 72 °C.
Under `COc1c(OC)c(OC)c2c(c1OC)c(=O)c1ccc(OCc3ccccc3)c(OC)c1n2C` stands 127 to 128 °C.
Regarding `CC1=C(C)C(Cl)N(c2ccc(Cl)c(Cl)c2)C1=O` (centres undefined), the melting point was in the range of 95 to 96 °C.
Under `Cc1c(-c2ccc(O)cc2)n(Cc2ccc(OCCN(C(C)C)C(C)C)cc2)c2ccc(O)cc12` stands 96 to 102 °C.
Molecule `CC1(O)Nc2cc(O)c(C(C)(C)C)cc2O1` (centres undefined) registered a melting point of 203 to 205 °C.
Under `CCCCCCN(Cc1ccc(N(C)C)cc1)c1c(N[C@@H](Cc2ccccc2)C(=O)O)c(=O)c1=O` stands 77 to 80 °C; under `CC1(NC(=O)CN2C(=O)c3ccccc3C2=O)CCCCCC1`, 190 °C; under `OC1CSC(Oc2ccc(-c3cccnc3Cl)nc2)C(O)C1O` (centres undefined), 203 °C.
Next, `O=[N+]([O-])c1cc(C(F)(F)F)c(Br)cc1-n1ccnc1`: 149 to 157 °C; `Cn1c(=O)n(COc2ccc(Cl)cc2)c(=O)c2c1ncn2Cc1ccccc1`: 96 °C.
Under `CN(C)C(=O)N[C@H]1CC[C@H](CCN2CCN(c3ccc(O)c(Cl)c3Cl)CC2)CC1` stands 278 to 280 °C; under `CN1CCC(c2c(O)cc(O)c3c(=O)cc(-c4ccccc4Cl)oc23)C1C(=O)O` (centres undefined), 295 to 297 °C.
With `ClC(Cl)=NC(Cl)(Cl)C(Cl)(Cl)N=C(Cl)Cl`, the melting point is 167 °C.
Next, `COc1ccc2oc3ccc(Br)cc3c2c1C(=O)Nc1ccncc1`: 270 to 273 °C; `Cc1cnc2c(NC(=O)c3c(Cl)cccc3Cl)cccc2c1N1CCNC1=O`: above 250 °C; `C=CC(=O)OCCNC(=O)CCc1cc(-n2nc3ccccc3n2)c(O)c(C(C)(C)C)c1`: 80 to 83 °C.
Under `Clc1nc(Nc2ccccc2)c2ccccc2n1` stands 194 to 196 °C; under `O=C(O)C1CC(=O)N(c2cc(C(F)(F)F)cc(C(F)(F)F)c2)C1` (centres undefined), 108 to 109 °C; under `CCCCc1ncc(C(=O)OC)c(=O)[nH]1`, 153 to 155 °C.
Under `COC(=O)CCc1cc2cc(C(F)(F)F)ccc2[nH]1` stands 106 to 108 °C; under `CSc1ccc(Oc2ccc(N)cc2)c(C)c1`, 162 °C.
For the molecule `Cc1c(NC(=O)CC(C)(C)C)cc2c(c1C)OC(C)(C)C2Nc1ccccc1OC(F)(F)F` (centres undefined), the melting point was in the range of 196 to 197 °C.
Under `FC(F)(F)c1nnc2nc(-c3ccccc3)c3cc(Cl)ccc3n12` stands 241 to 242 °C.
Next, `CC(C)(C)NS(=O)(=O)c1ccc(S(N)(=O)=O)s1`: 116 to 120 °C; `COc1cc(/C=C/C=C/C=O)ccc1OCc1nc(-c2ccccc2)oc1C`: 133 to 134 °C; `Oc1ccc([C@@H]2CCc3cc(O)ccc3[C@@H]2Cn2ccnc2)cc1` (relative stereo): 238 °C.
Under `CCOC(=O)C(C(=O)OC(C)(C)C)c1c([N+](=O)[O-])cc([N+](=O)[O-])c2ccccc12` (centres undefined) stands 86 to 88 °C; under `Cc1cc(OC(F)(F)C(F)F)ccc1N1C(=O)c2cccc(Cl)c2C1=O`, 121 to 122 °C.
`CC(=O)C(=Cc1ccccc1)C(C)=O` registered a melting point of 165 to 167 °C.
Under `COc1ccc2nc(COc3ccc(NC(C)=O)cc3)sc2c1` stands 145 to 147 °C; under `Cc1ccc(S(=O)(=O)OCC2COc3cc(C)ccc3O2)cc1` (centres undefined), 84 °C; under `O=C(O)CCC(=O)c1cc(Br)cc(Br)c1`, 137 to 138 °C.
`Cc1cc(-c2ccc(C(F)(F)F)cc2)cc(-c2cccc(-c3csc(N)n3)c2)n1` showed a melting point above 250 °C.
Take `CS(=O)(=O)C(=C1CN(C(c2ccccc2)c2ccccc2)C1)c1ccc(Cl)cc1Cl`: the melting point was 165 °C.
Next, `OCC(Cl)=C(Cl)CC(O)(Cn1cncn1)C1(Cl)CC1` (centres undefined): 130 to 132 °C; `CCN1CC(=O)Nc2cc(NC3(C(N)=O)CC4CC3C=C4Cl)c(OC)cc2C1` (centres undefined): 154 to 156 °C.
The molecule `COc1ccc(NC(=O)c2ccc(-c3ccc(S(C)=O)cc3)c(C)c2)cc1N1CCN(C)CC1` (centres undefined) had a melting point of 210 to 212 °C.
